Assays:
[1] = co-treatment with an NMDA receptor antagonist, non-NMDA receptor and Ca2+ channel antagonists together with furosemide; Collins et al. 1998; cited from earlier work
human skin = conditions: Willis et al.; cited from earlier work
hippocampal slices, CA1 = assay: comparison of low-[Cl-]o and furosemide on blockade of high-[K+]o-induced epileptiform activity, CA1 field (Example 78); assay type: cell-based, rat
Text: In all of the following experiments, [Cl^−]o was reduced by equimolar replacement of NaCl with Na^+-gluconate. Gluconate was used rather than other anion replacements for several reasons. […]; U.S. Pat. No. 5,902,732). Third, formate, acetate, and proprionate generate weak acids when employed as Cl^− substitutes and lead to a prompt fall in intracellular pH; gluconate remains extracellular and has not been reported to induce intracellular pH shifts. Fourth, for purposes of comparison we wished to use the same anion replacement that had been used in previous studies examining the effects of low-[Cl^−]o on activity-evoked changes of the ECS.
Sprague-Dawley adult rats were prepared as previously described. Briefly, transverse hippocampal slices, 400 μm thick, were cut using a vibrating cutter. Slices typically contained the entire hippocampus and subiculum. […] Normal ACSF contained (in mmol/l): 124 NaCl, 3 KCl, 1.25 NaH2PO4, 1.2 MgSO4, 26 NaHCO3, 2 CaCl2, and 10 dextrose.
Sharp-electrodes filled with 4 M potassium acetate were used for intracellular recordings from CA1 pyramidal cells. […] For stimulation of the Schaffer collateral pathway, a small monopolar electrode was placed on the surface of the slice midway between areas CA1 and CA3. […] AxoScope software (Axon Instruments Inc.) on a PC-computer was used for off-line analyses of data. […]

[2] = tested on: urethane-anesthetized rats; assay: kainic acid-evoked electrical status epilepticus in urethane-anesthetized rats (Example 70); assay type: in vivo, rat
Procedure: Body temperature was monitored using a rectal temperature probe and maintained at 35-37° C. with a heating pad; heart rate (EKG) was continuously monitored. The jugular vein was cannulated on one side for intravenous drug administration. Rats were placed in a Kopf stereotaxic device (with the top of the skull level), and a bipolar stainless-steel microelectrode insulated to 0.5 mm of the tip was inserted to a depth of 0.5-1.2 mm from the cortical surface to record electroencephalographic (EEG) activity in the fronto-parietal cortex. In some experiments, a 2M NaCl-containing pipette was lowered to a depth of 2.5-3.0 mm to record hippocampal EEG. Data were stored on VHS videotape and analyzed off-line.
Following the surgical preparation and electrode placement, animals were allowed to recover for 30 minutes before the experiments were initiated with an injection of kainic acid (10-12 mg/kg i.v.). […] Experiments were terminated with the intravenous administration of urethane. Animal care was in accordance with NIH guidelines and approved by the University of Washington Animal Care Committee.

rats = assay: contextual fear conditioning in rats (freezing); assay type: in vivo, rat; conditions: I.V. in DMSO, furosemide 100 mg/kg, bumetanide 50 mg/kg; compared with vehicle alone; FIG. 5
Procedure: Contextual fear conditioning involves pairing an aversive event, in this case moderate foot shock, with a distinctive environment. The strength of the fear memory is assessed using freezing, a species-typical defensive reaction in rats, marked by complete immobility, except for breathing. […] However, if they are allowed to explore the distinctive environment sometime before the immediate shock, they show intense anxiety and fear when placed back into the same environment. We can take advantage of this fact and, by procedurally dividing contextual fear conditioning into two phases, we can separately study effects of treatments on memory for the context (specifically a hippocampus based process) from learning the association between context and shock or experiencing the aversiveness of the shock (which depend upon emotional response circuitry including amygdala). […] The experiment employed 24 rats. […] Each rat was again placed into the same environment for 8 min during which time freezing was measured, as an index of Pavlovian conditioned fear. […] Measurement of freezing was accomplished through an overhead video camera connected to the microcomputer and was automatically scored using a specialty piece of software, FreezeFrame (OER Inc., Reston, Va.). Total freezing time was analyzed in a one-way analysis of variance (ANOVA) test, with drug dose as the […] factor.

## NS(=O)(=O)c1cc(C(=O)O)c(NCc2ccco2)cc1Cl [furosemide]
[1]
  reduction of alcohol-dependent cerebrocortical damage: 75-85%
Human skin
  sensory nerve activation, itch and flare responses induced by histamine: inhibit sensory nerve activation to reduce the itch and flare responses
Hippocampal slices, CA1; after the spontaneous bursting had been blocked
  response to electrical stimulation of the Schaffer collaterals: elicited hyperexcited responses
Hippocampal slices, CA1; furosemide 2.5 and 5 mM, [K+]o 12 mM
  temporal sequence of effects on high-[K+]o-induced bursting, CA1 field: an initial brief period of increased amplitude of field activity, and then blockade (reversible) of spontaneous field activity
[2]; 90 minutes after the furosemide injection
  cortical activity: remained near normal baseline levels
[2]; intravenous furosemide, cumulative dose 40-60 mg/kg
  latency of block of seizure activity: 30 to 45 min
[2]; intravenous furosemide, cumulative dose 40-60 mg/kg, kainic acid 10-12 mg/kg i.v.
  seizure activity (EEG): blocked
rats
  freezing: significantly less freezing
